From PubChem BioAssay AID1963980 (Molecular Pharmacology Branch, DTP, NCI, 2024)

Tested on: 475296-252-R-J1-PDC spheroid viability
Assay: Anticancer human tumor 475296-252-R-J1-PDC patient-derived rectal carcinoma cell line growth inhibition [PI3K]
Settings: spheroids with HUVEC and MSC; for IC50: curve of first compound; for viability, T/C: stronger effect = lower value
Summary of the method: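 Tumor cells were combined with HUVEC and MSCs into spheroids, then dosed with PI3K-inhibitor combinations over half-log ranges capped near clinical Cmax or 10 microM.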

[1] = second compound 0.00316 µM, first compound 0.000316 µM
[2] = second compound 0.00316 µM, first compound 0.001 µM
[3] = second compound 0.00316 µM, first compound 0.00316 µM
[4] = second compound 0.00316 µM, first compound 0.01 µM
[5] = second compound 0.00316 µM, first compound 0.0316 µM
[6] = second compound 0.00316 µM, first compound 0.1 µM
[7] = second compound 0.01 µM, first compound 0.000316 µM
[8] = second compound 0.01 µM, first compound 0.001 µM
[9] = second compound 0.01 µM, first compound 0.00316 µM
[10] = second compound 0.01 µM, first compound 0.01 µM
[11] = second compound 0.01 µM, first compound 0.0316 µM
[12] = second compound 0.01 µM, first compound 0.1 µM
[13] = second compound 0.0316 µM, first compound 0.000316 µM
[14] = second compound 0.0316 µM, first compound 0.001 µM
[15] = second compound 0.0316 µM, first compound 0.00316 µM
[16] = second compound 0.0316 µM, first compound 0.01 µM
[17] = second compound 0.0316 µM, first compound 0.0316 µM
[18] = second compound 0.0316 µM, first compound 0.1 µM
[19] = second compound 0.1 µM, first compound 0.000316 µM
[20] = second compound 0.1 µM, first compound 0.001 µM
[21] = second compound 0.1 µM, first compound 0.00316 µM
[22] = second compound 0.1 µM, first compound 0.01 µM
[23] = second compound 0.1 µM, first compound 0.0316 µM
[24] = second compound 0.1 µM, first compound 0.1 µM
[25] = second compound 0.316 µM, first compound 0.000316 µM
[26] = second compound 0.316 µM, first compound 0.001 µM
[27] = second compound 0.316 µM, first compound 0.00316 µM
[28] = second compound 0.316 µM, first compound 0.01 µM
[29] = second compound 0.316 µM, first compound 0.0316 µM
[30] = second compound 0.316 µM, first compound 0.1 µM
[31] = second compound 1 µM, first compound 0.000316 µM
[32] = second compound 1 µM, first compound 0.001 µM
[33] = second compound 1 µM, first compound 0.00316 µM
[34] = second compound 1 µM, first compound 0.01 µM
[35] = second compound 1 µM, first compound 0.0316 µM
[36] = second compound 1 µM, first compound 0.1 µM
[37] = second compound 0.00316 µM, first compound 0.316 µM
[38] = second compound 0.00316 µM, first compound 1 µM
[39] = second compound 0.00316 µM, first compound 3.16 µM
[40] = second compound 0.00316 µM, first compound 10 µM
[41] = second compound 0.01 µM, first compound 0.316 µM
[42] = second compound 0.01 µM, first compound 1 µM
[43] = second compound 0.01 µM, first compound 3.16 µM
[44] = second compound 0.01 µM, first compound 10 µM
[45] = second compound 0.0316 µM, first compound 0.316 µM
[46] = second compound 0.0316 µM, first compound 1 µM
[47] = second compound 0.0316 µM, first compound 3.16 µM
[48] = second compound 0.0316 µM, first compound 10 µM
[49] = second compound 0.1 µM, first compound 0.316 µM
[50] = second compound 0.1 µM, first compound 1 µM
[51] = second compound 0.1 µM, first compound 3.16 µM
[52] = second compound 0.1 µM, first compound 10 µM
[53] = second compound 0.316 µM, first compound 0.316 µM
[54] = second compound 0.316 µM, first compound 1 µM
[55] = second compound 0.316 µM, first compound 3.16 µM
[56] = second compound 0.316 µM, first compound 10 µM
[57] = second compound 1 µM, first compound 0.316 µM
[58] = second compound 1 µM, first compound 1 µM
[59] = second compound 1 µM, first compound 3.16 µM
[60] = second compound 1 µM, first compound 10 µM
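Also: spheroids exposed to agents for seven days before readout.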

`CC(=O)c1c(C)c2cnc(Nc3ccc(N4CCNCC4)cn3)nc2n(C2CCCC2)c1=O` + COc1c(OCCCN2CCOCC2)ccc2c3n(c(=NC(=O)c4cnc(N)nc4)nc12)CCN3 was tested, and the IC50 (second compound 0.00316 µM) was greater than 100 nM, the IC50 (second compound 0.01 µM) was greater than 100 nM and the IC50 (second compound 0.0316 µM) was greater than 100 nM. For the same compound, the IC50 (second compound 0.1 µM) was greater than 100 nM, the IC50 (second compound 0.316 µM) was greater than 100 nM and the IC50 (second compound 1 µM) was greater than 100 nM. For the same compound, the viability, T/C [1] was 108%, the viability, T/C [2] was 101% and the viability, T/C [3] was 104%. The viability, T/C [4] was 119%, the viability, T/C [5] was 113% and the viability, T/C [6] was 108%. For the same compound, the viability, T/C [7] was 97.4%, the viability, T/C [8] was 99.5% and the viability, T/C [9] was 95.9%. It also gave a viability, T/C [10] of 99.5%, a viability, T/C [11] of 98.5% and a viability, T/C [12] of 99.8%. For the same compound, the viability, T/C [13] was 96.2%, the viability, T/C [14] was 86% and the viability, T/C [15] was 90.5%. It also gave a viability, T/C [16] of 98.7%, a viability, T/C [17] of 105% and a viability, T/C [18] of 99.8%. It also gave a viability, T/C [19] of 77.8%, a viability, T/C [20] of 82.3% and a viability, T/C [21] of 97.6%. It also gave a viability, T/C [22] of 77.8%, a viability, T/C [23] of 83.9% and a viability, T/C [24] of 84.1%. For the same compound, the viability, T/C [25] was 71.6%, the viability, T/C [26] was 75.5% and the viability, T/C [27] was 70.7%. It also gave a viability, T/C [28] of 72.6%, a viability, T/C [29] of 82.8% and a viability, T/C [30] of 84.6%. For the same compound, the viability, T/C [31] was 60.7%, the viability, T/C [32] was 56.7% and the viability, T/C [33] was 69.3%. The viability, T/C [34] was 61.5%, the viability, T/C [35] was 59.7% and the viability, T/C [36] was 52.4%.

`CC(C)n1nc(-c2ccc3oc(N)nc3c2)c2c(N)ncnc21` + COc1c(OCCCN2CCOCC2)ccc2c3n(c(=NC(=O)c4cnc(N)nc4)nc12)CCN3 gave an IC50 (second compound 0.00316 µM) greater than 100 nM, an IC50 (second compound 0.01 µM) greater than 100 nM and an IC50 (second compound 0.0316 µM) greater than 100 nM. The IC50 (second compound 0.1 µM) was 98.7 nM, the IC50 (second compound 0.316 µM) was 49 nM and the IC50 (second compound 1 µM) was 34.4 nM. It also gave a viability, T/C [1] of 96.8%, a viability, T/C [2] of 99.5% and a viability, T/C [3] of 84.6%. For the same compound, the viability, T/C [4] was 73.2%, the viability, T/C [5] was 81.4% and the viability, T/C [6] was 56.9%. It also gave a viability, T/C [7] of 96.5%, a viability, T/C [8] of 90.7% and a viability, T/C [9] of 97.4%. It also gave a viability, T/C [10] of 92%, a viability, T/C [11] of 75.2% and a viability, T/C [12] of 64.3%. For the same compound, the viability, T/C [13] was 91.4%, the viability, T/C [14] was 85.8% and the viability, T/C [15] was 101%. The viability, T/C [16] was 82%, the viability, T/C [17] was 81.9% and the viability, T/C [18] was 51.7%. For the same compound, the viability, T/C [19] was 95.2%, the viability, T/C [20] was 84.8% and the viability, T/C [21] was 78.8%. The viability, T/C [22] was 79.6%, the viability, T/C [23] was 68.8% and the viability, T/C [24] was 48.3%. It also gave a viability, T/C [25] of 71.7%, a viability, T/C [26] of 67.6% and a viability, T/C [27] of 68.2%. For the same compound, the viability, T/C [28] was 73%, the viability, T/C [29] was 56.5% and the viability, T/C [30] was 35.2%. The viability, T/C [31] was 60.8%, the viability, T/C [32] was 56.7% and the viability, T/C [33] was 59.5%. It also gave a viability, T/C [34] of 55.6%, a viability, T/C [35] of 51.6% and a viability, T/C [36] of 35.6%.

Work on `CCCS(=O)(=O)Nc1ccc(F)c(C(=O)c2c[nH]c3ncc(-c4ccc(Cl)cc4)cc23)c1F` + COc1c(OCCCN2CCOCC2)ccc2c3n(c(=NC(=O)c4cnc(N)nc4)nc12)CCN3 yielded an IC50 (second compound 0.00316 µM) greater than 10000 nM, an IC50 (second compound 0.01 µM) greater than 10000 nM and an IC50 (second compound 0.0316 µM) greater than 10000 nM. It also gave an IC50 (second compound 0.1 µM) greater than 10000 nM, an IC50 (second compound 0.316 µM) greater than 10000 nM and an IC50 (second compound 1 µM) greater than 10000 nM. For the same compound, the viability, T/C [5] was 102%, the viability, T/C [6] was 85.2% and the viability, T/C [37] was 98.7%. For the same compound, the viability, T/C [38] was 103%, the viability, T/C [39] was 98.4% and the viability, T/C [40] was 105%. For the same compound, the viability, T/C [11] was 94%, the viability, T/C [12] was 99.5% and the viability, T/C [41] was 87.7%. The viability, T/C [42] was 86.9%, the viability, T/C [43] was 94.2% and the viability, T/C [44] was 100%. For the same compound, the viability, T/C [17] was 91.9%, the viability, T/C [18] was 91.1% and the viability, T/C [45] was 93.8%. For the same compound, the viability, T/C [46] was 94.8%, the viability, T/C [47] was 83.2% and the viability, T/C [48] was 87.4%. The viability, T/C [23] was 83%, the viability, T/C [24] was 80% and the viability, T/C [49] was 84.5%. For the same compound, the viability, T/C [50] was 78.8%, the viability, T/C [51] was 66.4% and the viability, T/C [52] was 71.3%. It also gave a viability, T/C [29] of 67.6%, a viability, T/C [30] of 69.8% and a viability, T/C [53] of 64.9%. It also gave a viability, T/C [54] of 70.2%, a viability, T/C [55] of 57.5% and a viability, T/C [56] of 64.6%. The viability, T/C [35] was 62.5%, the viability, T/C [36] was 64.1% and the viability, T/C [57] was 79.8%. For the same compound, the viability, T/C [58] was 57.9%, the viability, T/C [59] was 73.3% and the viability, T/C [60] was 58.1%.

Compound `CNC(=O)c1ccc(N2C(=S)N(c3ccc(C#N)c(C(F)(F)F)c3)C(=O)C2(C)C)cc1F` + COc1c(OCCCN2CCOCC2)ccc2c3n(c(=NC(=O)c4cnc(N)nc4)nc12)CCN3 has an IC50 (second compound 0.00316 µM) greater than 10000 nM, an IC50 (second compound 0.01 µM) greater than 10000 nM and an IC50 (second compound 0.0316 µM) greater than 10000 nM. For the same compound, the IC50 (second compound 0.1 µM) was greater than 10000 nM, the IC50 (second compound 0.316 µM) was greater than 10000 nM and the IC50 (second compound 1 µM) was greater than 10000 nM. The viability, T/C [5] was 99.1%, the viability, T/C [6] was 107% and the viability, T/C [37] was 101%. It also gave a viability, T/C [38] of 95.8%, a viability, T/C [39] of 103% and a viability, T/C [40] of 108%. It also gave a viability, T/C [11] of 96.6%, a viability, T/C [12] of 94.7% and a viability, T/C [41] of 102%. It also gave a viability, T/C [42] of 97.5%, a viability, T/C [43] of 100% and a viability, T/C [44] of 96.2%. It also gave a viability, T/C [17] of 76%, a viability, T/C [18] of 88.5% and a viability, T/C [45] of 89.7%. The viability, T/C [46] was 98.1%, the viability, T/C [47] was 91.9% and the viability, T/C [48] was 107%. The viability, T/C [23] was 75.7%, the viability, T/C [24] was 68.5% and the viability, T/C [49] was 83.1%. For the same compound, the viability, T/C [50] was 81%, the viability, T/C [51] was 89.4% and the viability, T/C [52] was 87.3%. It also gave a viability, T/C [29] of 76.6%, a viability, T/C [30] of 68.1% and a viability, T/C [53] of 71.7%. It also gave a viability, T/C [54] of 80.9%, a viability, T/C [55] of 70.5% and a viability, T/C [56] of 72%. It also gave a viability, T/C [35] of 72.5%, a viability, T/C [36] of 72% and a viability, T/C [57] of 50.6%. For the same compound, the viability, T/C [58] was 60.1%, the viability, T/C [59] was 63.5% and the viability, T/C [60] was 61.5%.
